Seven molecules from ChEMBL document CHEMBL2440070, “Synthesis and evaluation of novel azetidine analogs as potent inhibitors of vesicular [3H]dopamine uptake” (Bioorg Med Chem, 2013) can be followed below.

Structures are written as SMILES.

For the assay, the target named is Synaptic vesicular amine transporter (Rattus norvegicus, UniProt Q01827). Description: Inhibition of VMAT2-mediated [3H]-dopamine uptake in rat striata isolated synaptic vesicles by liquid scintillation spectroscopy.
Chain of Synaptic vesicular amine transporter (Q01827 whole entry): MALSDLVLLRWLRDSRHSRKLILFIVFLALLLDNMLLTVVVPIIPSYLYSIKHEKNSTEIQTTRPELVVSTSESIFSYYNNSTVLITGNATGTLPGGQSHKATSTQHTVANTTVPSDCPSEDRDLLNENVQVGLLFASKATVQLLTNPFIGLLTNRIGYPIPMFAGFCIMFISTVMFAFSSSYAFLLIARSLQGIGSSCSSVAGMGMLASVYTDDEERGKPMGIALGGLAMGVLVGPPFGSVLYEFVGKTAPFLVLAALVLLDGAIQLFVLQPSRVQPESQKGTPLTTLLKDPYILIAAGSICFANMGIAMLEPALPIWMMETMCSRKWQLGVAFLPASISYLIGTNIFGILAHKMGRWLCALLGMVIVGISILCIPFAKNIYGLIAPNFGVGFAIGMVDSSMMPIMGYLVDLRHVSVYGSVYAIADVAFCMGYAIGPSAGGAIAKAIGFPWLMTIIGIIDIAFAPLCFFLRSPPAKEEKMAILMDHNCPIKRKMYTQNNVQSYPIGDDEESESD
In turn, `c1cc2c(cc1CC[C@@H]1C[C@@H](CCc3ccc4c(c3)OCO4)N1)OCO2` (racemic) returned an inhibitory constant (Ki) of 31 nM.

Molecule `c1ccc(CC[C@H]2CCC[C@@H](CCc3ccccc3)N2)cc1` returned an inhibition constant (Ki) of 43 nM.

For `c1ccc(CC[C@@H]2C[C@@H](CCc3ccccc3)N2)cc1` (racemic), the affinity, expressed as Ki, was 48 nM.

As to `COc1ccc(CC[C@@H]2C[C@H](CCc3ccc(OC)cc3)N2)cc1`, the affinity corresponds to a Ki of 24 nM. Compared with the last molecule, the Ki is about 2-fold lower.

In turn, `c1cc2c(cc1CC[C@@H]1C[C@H](CCc3ccc4c(c3)OCO4)N1)OCO2` yielded a Ki of 55 nM. Against the preceding molecule, the Ki is about 2.3-fold higher.

For the molecule `COc1ccc(CC[C@@H]2C[C@@H](CCc3ccc(OC)cc3)N2)cc1` (racemic), the inhibitory constant (Ki) was found to be 66 nM.

In turn, `c1ccc(CC[C@@H]2C[C@H](CCc3ccccc3)N2)cc1` showed a Ki of 62 nM.
